According to patent US11213536B2, “Acylated compounds for the treatment of ocular pathologies” (CONSEJO SUPERIOR DE INVESTIGACIONES CIENTÍFICAS, priority 2016, dated 2022):
“Also recorded” adds a separate entry of the source.

Test system: rd10 mouse
Assay: rd10 mice retinal degeneration model, subretinal injection
Format: in vivo
Details: 5 mM subretinal
Text: The rd10 mouse is a model of retinitis pigmentosa due to a mutation in the Pde6b gene that results in the degeneration of the photoreceptors that begins on postnatal day 15-16 (P15-16) and is completed within one month (P30). In this model, the degeneration begins in the rods and then continues with cones and finally the retinal pigment epithelium (RPE). The degeneration in this model occurs as a consequence of the loss of the function of Pde6b, which ultimately leads to a continuous entry of Ca^++ in the […] with a significant production of reactive oxygen species (ROS), infiltration of macrophages, and activation of pro-apoptotic proteins. At the histological level, a loss of nuclei is observed in the outer nuclear layer of the retina (the layer in which photoreceptor nuclei are located), as well as the loss of the specific markers of rods (rhodopsin) and cones (opsin). The electroretinogram (ERG), which measures the electrical response of the retina to visual stimuli, is markedly affected in rd10 mice, with progressive loss of the amplitude of the a- and b-waves of the ERG. […] To evaluate the protective effect of our compounds on the retina, we first used the rd10 model. Rd10 homozygous mice were injected in the subretinal space at P13 (two to three days before the onset of degeneration) with 1 μl of vehicle (5% DMSO in PBS) or resveratrol RES (5 mM), as well as compound 2 (5 mM). Then, 15 days after having been injected, fundus, ERG, and histological changes were evaluated in the untreated mice, those treated with the vehicle, and those treated with RES and compound 2. […] The ERG in the treated mice was also evaluated 15 days after the injections. The amplitude of the a- and b-waves in the ERGs were quantified, and the statistical analysis was performed using two-way ANOVA and post hoc DMS. A value of p<0.05 was considered significant. […] Finally, the immunofluorescence study was performed in order to observe the presence of markers of rods (rhodopsin) and cones (opsin) (FIG. 10). The number of photoreceptor nuclei present in the outer nuclear layer (ONL), as well as the immunostaining of rhodopsin, was much greater in rd10 mice treated with compound 2 than in those treated with RES and in the controls.

CCCCCCCC(=O)OCC1OC(Oc2cc(O)cc(/C=C/c3ccc(O)cc3)c2)C(O)C(O)C1O [Compound 2, trans-resveratrol-3-O-(6′-O-octanoyl)-β-D-glucopyranoside]
amplitude of the a- and b-waves in ERG (15 days): preserved in the group treated with compound 2 in a greater proportion
thickness of the outer nuclear layer (ONL) (15 days): greater than in the group treated with RES
pigment accumulation in the fundus (15 days after injection): absence of pigment; also recorded: lower amount of pigment accumulation
b-wave amplitude in dark-adapted ERG (15 days, flash intensities 0.2, 1, 3 and 10 cd s/m^2): significantly increased; also recorded: significant increase
labeling of rhodopsin and opsin (15 days, immunofluorescence): more intense
number of photoreceptor nuclei in the outer nuclear layer (ONL) and immunostaining of rhodopsin (15 days, immunofluorescence): much greater
